According to patent US9725412B2, “Polymorphic forms of perindopril (L)-arginine and process for the preparation thereof” (Mylan Laboratories Limited, priority 2008, dated 2017):

Tests used:
[1] = Physical stability on drying and at humidity (RH >90%), by PXRD and Karl-Fisher; assay type: physicochemical
Method: The physical stability of the amorphous form, Form γ and literature Form α of Perindopril (L)-Arginine was determined by storing approximately 3.0 g of the sample a) at 50° C., b) at 70° C., c) at 100° C. and d) at 90% Relative Humidity (RH). […]

[2] = Transformation kinetics: solvent-mediated polymorph transformation (slurry in solvents, PXRD); assay type: physicochemical; details: for Result (polymorphic form by PXRD after slurry): stirred 12 hours; for Form conversion: stirred in toluene or acetonitrile for more than 15 hrs at room temperature; for Form conversion or dissociation: slurry in heptane
Method: Solvent-mediated polymorph transformations are an effective method to measure the physical stability for both metastable and thermodynamically stable polymorphs. This study is carried out by slurring 1 g of Form γ, amorphous and literature Form α of Perindopril (L)-Arginine salt in different solvents at 25 to 30° C. for several hours. The solid samples are then characterized by PXRD (example 10, Table 6).
1 g of Perindopril (L)-Arginine salt is suspended in appropriate solvents at different temperature and stirred for 12 hours to afford form γ of Perindopril (L)-Arginine.

[3] = Hygroscopic studies at different relative humidities; assay type: physicochemical; details: stored in different relative humidities for 1 to 3 months
[4] = Solid state stability at accelerated stress conditions (40° C./75% relative humidity); assay type: physicochemical; details: 40° C./75% RH
Method: The present invention is to provide Perindopril (L)-Arginine (γ) form having the degree of crystallinity under 60%, which has enhanced stability to heat and humidity. According to the present invention, the obtained Perindopril (L)-Arginine (γ) form is subjected to accelerated stability at 40° C. and relative humidity (RH) 75%.
The samples were tested by PXRD, Karl-Fisher titrator and HPLC for final purity and degradation products.

[5] = tablets, temperate-climate countries; cited from earlier work

CCC[C@H](N[C@@H](C)C(=O)N1[C@H](C(=O)O)C[C@@H]2CCCC[C@@H]21)C(=O)OCC.N=C(N)NCCC[C@H](N)C(=O)O [Amorphous, Perindopril (L)-Arginine]
Results (polymorphic form by PXRD) ([1]; Drying at 25° C., 3 hrs): Form γ
Results (polymorphic form by PXRD) ([1]; Humidity (RH >90%), 3 hrs): Form γ
Results (polymorphic form by PXRD) ([1]; Humidity (RH >90%), 3 hrs, listed as amorphous Perindopril Arginine salt): polymorphic form γ
Change in form ([1]; in humidity): converted to Form γ
Result (polymorphic form by PXRD after slurry) ([2]; ACN, volume 10, 25-30 ° C.): Form γ
Form conversion [2]: converted to form γ

CCC[C@H](N[C@@H](C)C(=O)N1[C@H](C(=O)O)C[C@@H]2CCCC[C@@H]21)C(=O)OCC.N=C(N)NCCC[C@H](N)C(=O)O [Form α, Perindopril (L)-Arginine]
Results (polymorphic form by PXRD) ([1]; Drying at 70° C., 3 days): Form α
Results (polymorphic form by PXRD) ([1]; Drying at 100° C., 7 days): Form α
Results (polymorphic form by PXRD) ([1]; Humidity (RH >90%), 15 hrs): Form γ
Change in form ([1]; in humidity): converted to Form γ
Result (polymorphic form by PXRD after slurry) ([2]; ACN, volume 5, 25-30 ° C.): Form γ
Result (polymorphic form by PXRD after slurry) ([2]; ACN, volume 5, 70-80 ° C.): Form γ
Result (polymorphic form by PXRD after slurry) ([2]; Toluene, volume 5, 25-30 ° C.): Form γ
Result (polymorphic form by PXRD after slurry) ([2]; n-heptane, volume 5, 25-30 ° C.): Form α
Form conversion or dissociation [2]: No discernible form conversion or dissociation
Form conversion [2]: converted to form γ

CCC[C@H](N[C@@H](C)C(=O)N1[C@H](C(=O)O)C[C@@H]2CCCC[C@@H]21)C(=O)OCC.N=C(N)NCCC[C@H](N)C(=O)O [Form γ, Perindopril (L)-Arginine]
Results (polymorphic form by PXRD) ([1]; Drying at 70° C., 3 days): Form γ
Results (polymorphic form by PXRD) ([1]; Drying at 100° C., 7 days): Form γ
Results (polymorphic form by PXRD) ([1]; Humidity (RH >90%), 15 hrs): Form γ
Change in form ([1]; both drying and humid conditions): no change in form
Increase in moisture content [3]: no substantial increase in moisture content
Result (polymorphic form by PXRD after slurry) ([2]; ACN, volume 10, 80 ° C.): Form v
Result (polymorphic form by PXRD after slurry) ([2]; Toluene, volume 10, 110 ° C.): Form γ
Relative thermodynamic stability ([2]; conclusion from stability and slurry observations): thermodynamically more stable than Perindopril (L)-Arginine amorphous and form α
Result (polymorphic form by PXRD after slurry) ([2]; n-heptane, volume 10, 60-80 ° C.): Form γ
Form conversion or dissociation [2]: No discernible form conversion or dissociation
PXRD ([4]; After 1 month): Same as initial
Purity (%) (HPLC) ([4]; After 1 month): 99.2%
m/c (%) (moisture content, Karl-Fisher) ([4]; After 1 month): 4.4%
PXRD ([4]; After 2 months): Same as initial
Purity (%) (HPLC) ([4]; After 2 months): 99.1%
m/c (%) (moisture content, Karl-Fisher) ([4]; After 2 months): 5.0%
PXRD ([4]; After 15 days): Same as initial
Purity (%) (HPLC) ([4]; After 15 days): 99.2%
m/c (%) (moisture content, Karl-Fisher) ([4]; After 15 days): 4.2%
PXRD ([4]; Initial): Form γ
Purity (%) (HPLC) ([4]; Initial): 99.1%
m/c (%) (moisture content, Karl-Fisher) ([4]; Initial): 3.8%
Chemical and physical stability ([4]; accelerated stability): chemically and physically very stable
Degradation in HPLC ([4]; accelerated stability): no degradation
Increase in moisture content ([4]; accelerated stability): no substantial increase

CC(C)(C)N.CCC[C@H](N[C@@H](C)C(=O)N1[C@H](C(=O)O)C[C@@H]2CCCC[C@@H]21)C(=O)OCC [Perindopril tert-butylamine salt]
Shelf-life [5]: ≤ 2 years
